“Also recorded” adds a separate entry of the source.
Assays:
schizophrenia patients [1] = conditions: for average normalized jerk (ANJ) score compared between medication groups / average normalized jerk (ANJ) score compared with healthy subjects: handwriting dysfluency; for average normalized jerk (ANJ) score compared between medication groups: marker of TD/EPS, 9 handwriting tasks, dominant hand, 1, 2, 4 cm, versus other medications; for average normalized jerk (ANJ) score compared with healthy subjects: medication group versus normal healthy subjects
schizophrenia patients [2] = experiment: Handwriting velocity scaling (VS) in patients grouped by antipsychotic medication; type: in vivo, human; conditions: lower VS scores indicate more parkinsonian bradykinesia; loops of 1, 2, 4 cm
Source text: Lower VS scores indicate more parkinsonian bradykinesia.
This measure expresses the extent to which movements are sped up when size is increased.
One simple and direct measure is the increase of a velocity measure in one stroke (e.g., in cm/s) divided by the increase of size (e.g., in cm). This resulting velocity scaling has a unit of size/duration/size or 1/duration.

schizophrenia patients [3] = experiment: Observer-based EPS severity ratings (SAEPS, AIMS, BARS); type: in vivo, human
schizophrenia patients [4] = conditions: in vivo
dopamine receptor = dopamine receptor (Homo sapiens, UniProt P14416); conditions: PET in schizophrenic patients before and after treatment; cited from earlier work
Chain of dopamine receptor (P14416 whole entry): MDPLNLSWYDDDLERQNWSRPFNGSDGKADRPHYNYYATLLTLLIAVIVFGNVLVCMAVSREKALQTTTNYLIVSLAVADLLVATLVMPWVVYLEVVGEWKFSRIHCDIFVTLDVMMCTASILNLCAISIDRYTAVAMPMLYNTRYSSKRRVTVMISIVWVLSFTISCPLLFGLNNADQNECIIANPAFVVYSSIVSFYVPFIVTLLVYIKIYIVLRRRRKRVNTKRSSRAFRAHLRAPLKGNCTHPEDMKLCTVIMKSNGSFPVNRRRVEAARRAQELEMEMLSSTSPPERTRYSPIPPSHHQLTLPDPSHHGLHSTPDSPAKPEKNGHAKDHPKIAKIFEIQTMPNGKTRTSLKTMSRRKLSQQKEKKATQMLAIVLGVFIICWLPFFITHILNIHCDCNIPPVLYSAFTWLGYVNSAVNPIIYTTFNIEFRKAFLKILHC

SMILES	average normalized jerk (ANJ) score compared between medication groups (schizophrenia patients [1])	average normalized jerk (ANJ) score compared with healthy subjects (schizophrenia patients [1])	velocity scaling (VS) score (slope of peak vertical velocity versus vertical size) compared between medication groups (schizophrenia patients [2])	effect of antipsychotic type on average normalized jerk and peak velocity (schizophrenia patients [1]; collapsed across all 14 task conditions)	observer-based EPS assessments: medicated versus unmedicated groups and relationship with dose (schizophrenia patients [3]; conventional ratings)	correlation between observer-based severity ratings and dose (schizophrenia patients [3]; p>0.05)	correlation (r) of peak vertical velocity with daily dose (schizophrenia patients [4])	motor impairment quantified by handwriting movements (schizophrenia patients [4])	relationship between reduction in handwriting size (area) and dopamine receptor occupancy (dopamine receptor)
OCCOCCN1CCN(C2=Nc3ccccc3Sc3ccccc32)CC1 [quetiapine]	significantly less abnormality than those treated with aripiprazole or risperidone	did not differ from normal healthy subjects	–	–	–	–	–	–	–
O=C1CCc2ccc(OCCCCN3CCN(c4cccc(Cl)c4Cl)CC3)cc2N1 [aripiprazole]	significantly higher ANJ	significantly higher ANJ scores than healthy subjects	lower VS scores than those on olanzapine or quetiapine; also recorded: lower VS scores than those on other medications	doing worse than others	–	–	–	–	–
Cc1nc2n(c(=O)c1CCN1CCC(c3noc4cc(F)ccc34)CC1)CCCC2 [risperidone]	–	–	–	–	not able to detect differences between risperidone-medicated and unmedicated groups or a relationship with risperidone dose	no significant correlations	−0.45	significant motor impairment	significant relationship between reduction in handwriting size (expressed by area) and dopamine receptor occupancy
